In patent US20060217418A1, “Substituted alkyl amido piperidines” (priority 2001, published 2006):

Tests used:
rat MCH1 receptor = molecular target: T1, rat MCH1 receptor (Rattus norvegicus, UniProt P97639); experiment: Radioligand binding assay at cloned rat MCH1 receptor ([3H]Compound A); conditions: cloned rat MCH1, Peakr293 cell membranes, 0.08 nM [3H]Compound A, 25° C., 90 minutes; read-out: Ki(MCH-1)
T1 construct: operatively linked to DNA encoding the rat MCH1 receptor so as to permit expression thereof; expressed in transfected cells; host or cells: Human embryonic kidney Peak rapid 293 (Peakr293) cells, transient calcium phosphate transfection, membranes
T1 sequence (P97639 whole entry): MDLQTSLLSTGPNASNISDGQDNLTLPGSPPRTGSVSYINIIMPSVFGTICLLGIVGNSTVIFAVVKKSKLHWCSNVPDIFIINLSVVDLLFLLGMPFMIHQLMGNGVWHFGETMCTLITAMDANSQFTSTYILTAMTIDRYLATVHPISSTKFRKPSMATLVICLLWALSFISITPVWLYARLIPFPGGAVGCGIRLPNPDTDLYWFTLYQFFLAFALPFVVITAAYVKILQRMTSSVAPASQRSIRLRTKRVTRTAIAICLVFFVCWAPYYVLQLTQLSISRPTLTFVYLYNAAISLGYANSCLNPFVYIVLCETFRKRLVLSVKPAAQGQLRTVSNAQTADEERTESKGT

Sprague Dawley rats = experiment: Continuous Slow Transvesicular Infusion (CSTI) rat model; format: in vivo; parameters: key: F: Produced an increase in bladder capacity in rats relative to baseline capacity; conditions: intragastric administration, bladder capacity relative to baseline capacity
Procedure: Male Sprague Dawley rats weighing approximately 300 g were used for the study. Rats were anaesthetized with pentobarbitone sodium (50 mg/kg, i.p). Through a median abdominal incision, bladder was exposed and a polyethylene cannula (PE 50) was introduced into the bladder through a small cut on the dome of the bladder and the cannula was secured with a purse string suture. The other end of the cannula was exteriorized subcutaneously at the dorsal neck area. Similarly, another cannula (PE 50) was introduced into the stomach through a paramedian abdominal incision with the free end exteriorized subcutaneously to the neck region. The surgical wounds were closed with silk 4-0 suture and the animal was allowed to recover with appropriate post surgical care. On the following day, the animal was placed in a rat restrainer. The open end of the bladder-cannula was connected to a pressure transducer as well as infusion pump through a three-way stopcock. The bladder voiding cycles were initiated by continuous infusion of normal saline at the rate of 100 μl/min. The repetitive voiding contractions were recorded on a Power Lab on-line data acquisition software. After recording the basal voiding pattern for an hour, the test drug or vehicle was administered directly into stomach through the intragastric catheter and the voiding cycles were monitored for 5 hours. Micturition pressure and frequency were calculated before and after the treatment (at every 30 min interval) for each animal. Bladder capacity was calculated from the micturition frequency, based on the constant infusion of 100 μl/min. The effect of the test drug was expressed as a percentage of basal, pre-drug bladder capacity. WAY 100635 was used as positive control for comparison.

[1] = in vivo; cited from earlier work

For `Cc1ccc(NC(=O)C(C)C)cc1C1CCN(CCCNC(=O)C(c2ccc(F)cc2)c2ccc(F)cc2)CC1` [Example 32], the Ki (rat MCH1 receptor) was 0.6 nM and the CSTI (Sprague Dawley rats) was “F”.

For `CC(C)C(=O)Nc1cccc(C2CCN(CCCNC(=O)C(c3ccccc3)c3ccccc3)CC2)n1` [Example 6], the Ki (rat MCH1 receptor) was 5.6 nM and the CSTI (Sprague Dawley rats) was “F”.

For `Cc1ccc(NC(=O)C(C)C)cc1C1CCN(CCCNC(=O)C(c2ccccc2)c2ccccc2)CC1` [Example 4], the Ki (rat MCH1 receptor) was 2.5 nM and the CSTI (Sprague Dawley rats) was “F”.

For `CN(C)CC1CCc2cc(NC(=O)c3ccc(-c4ccc(F)cc4)cc3)ccc2C1` (stereo not drawn) [Example T-226296], the “food intake induced by the intracerebroventricular application of MCH” value [1] is listed as “inhibit food intake”.

In the case of `CC(C)C(=O)Nc1cccc(C2CCN(CCCNC(=O)C(c3ccc(F)cc3)c3ccc(F)cc3)CC2)c1` [Example 1, N-{3-[1-(3-{[BIS(4-FLUOROPHENYL)ACETYL]AMINO}PROPYL)-4-PIPERIDINYL] PHENYL}-2-METHYLPROPANAMIDE], the Ki (rat MCH1 receptor) is reported as 1.3 nM and the CSTI (Sprague Dawley rats) is reported as “F”.

In the case of `CC(C)C(=O)Nc1ccc(F)c(C2CCN(CCCNC(=O)C(c3ccccc3)c3ccccc3)CC2)c1` [Example 24], the Ki (rat MCH1 receptor) is reported as 4.7 nM and the CSTI (Sprague Dawley rats) is reported as “F”.

For `CC(C)C(=O)Nc1cccc(C2CCN(CCCNC(=O)C(C)(C)c3ccc(Cl)cc3)CC2)c1` [Example 8, 2-(4-CHLOROPHENYL)-N-(3-{4-[3-(ISOBUTYRYLAMINO)PHENYL]-1-PIPERIDINYL} PROPYL)-2-METHYLPROPANAMIDE], the Ki (rat MCH1 receptor) was 11.7 nM and the CSTI (Sprague Dawley rats) was “F”.

In the case of `CC(C)C(=O)Nc1ccc(F)c(C2CCN(CCCNC(=O)C(c3ccc(F)cc3)c3ccc(F)cc3)CC2)c1` [Example 35, N-{3-[1-(3-{[bis(4-fluorophenyl)acetyl]amino}propyl)-4-piperidinyl]-4-fluorophenyl}-2-methylpropanamide], the Ki (rat MCH1 receptor) is reported as 0.4 nM and the CSTI (Sprague Dawley rats) is reported as “F”.

With `CC(=O)Nc1cccc(C2CCN(CCCNC(=O)C(c3ccccc3)c3ccccc3)CC2)c1` [Example 3, N-(3-{4-[3-(acetylamino)phenyl]-piperidinyl}propyl)-2,2-diphenylacetamide] the Ki (rat MCH1 receptor) was 2.5 nM and the CSTI (Sprague Dawley rats) was “F”.

For `CC(C)C(=O)Nc1cccc(C2CCN(CCCNC(=O)C(c3ccc(F)cc3)c3ccc(F)cc3)CC2)n1` [Example 29], the Ki (rat MCH1 receptor) was 2.3 nM and the CSTI (Sprague Dawley rats) was “F”.

For `CC(C)C(=O)Nc1cccc(C2CCN(CCCNC(=O)C3(c4ccc(Cl)cc4)CC3)CC2)c1` [Example 44, 1-(4-CHLOROPHENYL)-N-(3-{4-[3-(ISOBUTYRYLAMINO)PHENYL]-1-PIPERIDINYL} PROPYL)CYCLOPROPANECARBOXAMIDE], the Ki (rat MCH1 receptor) was 19.7 nM.

Molecule `CC(=O)Nc1cccc(C2CCN(CCCNC(=O)C3(c4ccc(F)cc4)CCCC3)CC2)c1` [Example 72, N-(3-{4-[3-(ACETYLAMINO)PHENYL]-1-PIPERIDINYL}PROPYL)-1-(4-FLUOROPHENYL) CYCLOPENTANECARBOXAMIDE] has a Ki (rat MCH1 receptor) of 52.3 nM.
